Laboratory results reported in paper PMC7606179 (Acta Pharmaceutica Sinica. B, 2020).

Test system: NA immobilized magnetic beads (NA from C. perfringens)
Assay type: binding, Clostridium perfringens

Row | Structure (SMILES) | Behaviour in NA-MB ligand fishing of the artificial mixture
1 | O=c1cc(-c2ccc(O)c(O)c2)oc2cc(O[C@@H]3O[C@H](CO)[C@@H](O)[C@H](O)[C@H]3O)cc(O)c12 [Galuteolin, galuteolin] | started to release from the enzyme when NA-MB was extracted using 50% organic solvent
2 | O=c1c(O)c(-c2ccc(O)c(O)c2)oc2cc(O)cc(O)c12 [Quercetin] | specific inhibitors of NA
3 | COc1ccc2c3c1O[C@H]1C[C@@H](O)C=C[C@@]31CCN(C)C2 [galantamine] | non-inhibitor of NA
4 | COc1cc(-c2oc3cc(O)cc(O)c3c(=O)c2O)ccc1O [isorhamnetin] | started to release from the enzyme when NA-MB was extracted using 50% organic solvent
5 | COc1cc2c(cc1O)CC[n+]1cc3c(OC)c(OC)ccc3cc1-2 [jatrorrhizine] | gradually washed out from M-S2 to M-S6
6 | O=c1cc(-c2ccc(O)c(O)c2)oc2cc(O)cc(O)c12 [luteolin] | specific inhibitors of NA
